{
  "source": "paper PMC9118179",
  "about": "“Ginkgolic acid and anacardic acid are reversible inhibitors of SARS-CoV-2 3-chymotrypsin-like protease” (Cell & Bioscience, 2022)",
  "key": {"SARS-CoV-2 3CL^pro [1]": {"biological_target": "T1, SARS-CoV-2 3CL^pro (Severe acute respiratory syndrome coronavirus 2, UniProt P0DTD1)", "T1 construct": "gene rep", "assay": "FRET protease assay", "type": "biochemical"}, "SARS-CoV-2 3CL^pro [2]": {"biological_target": "T1, SARS-CoV-2 3CL^pro", "assay": "FRET protease assay, Lineweaver-Burk secondary plot", "type": "biochemical"}},
  "data": [
    {"molecule": "CCCCCCCCCCCCCCCc1cccc(O)c1C(=O)O", "note": "[AA, anacardic acid]", "values": [
      {"measurement": "IC50", "setting": "SARS-CoV-2 3CL^pro [1]", "result": "7.6 ± 0.3", "unit": "µM"},
      {"measurement": "Ki", "setting": "SARS-CoV-2 3CL^pro [2]", "result": 1.87, "unit": "µM"}
    ]}
  ]
}
